Assay [1] concerns the target T1, Cbl-b (Homo sapiens, UniProt Q13191).
T1 construct: Cbl-b-HiBit KI Jurkat Cells were purchased from Promega; host or cells: Cbl-b-HiBiT knock-in Jurkat cells
Description: Cbl-b Degradation Method A (FACS, anti-Cbl-b antibody staining). It is filed as cell-based. The conditions noted are these: Cbl-b-HiBit KI Jurkat Cells, incubated at least 20 hours; for DC50: half maximal degradation, read-out: Cbl-b Degredation Method A IC50; for Dmax: Jurkat, read-out: Cbl-b Degredation Method A Dmax (%). The procedure, abridged: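 Readout is flow cytometry of fixed, permeabilized cells immunostained for Cbl-b (primary 1:200, AF488 secondary). Cells were Cbl-b-HiBit knock-in Jurkat, exposed to compound ≥20 h at 37 °C; half-maximal degradation concentration (DC50) and maximal degradation (Dmax) calculated relative to control.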
(In general: HiBiT is a short tag that completes a luciferase, so light tracks the accessible tagged protein.)

Assay [2] deals with T1, Cbl-b. The assay is described as follows: Cbl-b Degradation Method B (Nano-Glo HiBiT lytic detection). The class given is cell-based. The following applies: Cbl-b-HiBit KI Jurkat Cells, incubated at least 6-24 hours; for DC50: half maximal degradation, read-out: Cbl-b Degredation Method B IC50; for Cbl-b Degredation Method B Dmax (%) / Dmax: maximum degradation observed; for Dmax: read-out: Cbl-b Degredation Method B Dmax (%). The gist of the method: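 An 11-point, 3-fold compound dilution was applied for 6-24 hours to Jurkat cells carrying HiBiT-tagged endogenous Cbl-b. Lytic HiBiT luminescence quantified residual protein. Outputs are DC50 and Dmax relative to DMSO control.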

Results on twelve compounds are retold here after patent US20260184710A1, “CASITAS B-LINEAGE LYMPHOMA PROTOONCOGENE B (CBL-B) DEGRADING COMPOUNDS AND ASSOCIATED METHODS OF USE” (Arvinas Operations, Inc., priority 2022, published 2026).

Structures are written as SMILES.

T1 sequence (Q13191 whole entry): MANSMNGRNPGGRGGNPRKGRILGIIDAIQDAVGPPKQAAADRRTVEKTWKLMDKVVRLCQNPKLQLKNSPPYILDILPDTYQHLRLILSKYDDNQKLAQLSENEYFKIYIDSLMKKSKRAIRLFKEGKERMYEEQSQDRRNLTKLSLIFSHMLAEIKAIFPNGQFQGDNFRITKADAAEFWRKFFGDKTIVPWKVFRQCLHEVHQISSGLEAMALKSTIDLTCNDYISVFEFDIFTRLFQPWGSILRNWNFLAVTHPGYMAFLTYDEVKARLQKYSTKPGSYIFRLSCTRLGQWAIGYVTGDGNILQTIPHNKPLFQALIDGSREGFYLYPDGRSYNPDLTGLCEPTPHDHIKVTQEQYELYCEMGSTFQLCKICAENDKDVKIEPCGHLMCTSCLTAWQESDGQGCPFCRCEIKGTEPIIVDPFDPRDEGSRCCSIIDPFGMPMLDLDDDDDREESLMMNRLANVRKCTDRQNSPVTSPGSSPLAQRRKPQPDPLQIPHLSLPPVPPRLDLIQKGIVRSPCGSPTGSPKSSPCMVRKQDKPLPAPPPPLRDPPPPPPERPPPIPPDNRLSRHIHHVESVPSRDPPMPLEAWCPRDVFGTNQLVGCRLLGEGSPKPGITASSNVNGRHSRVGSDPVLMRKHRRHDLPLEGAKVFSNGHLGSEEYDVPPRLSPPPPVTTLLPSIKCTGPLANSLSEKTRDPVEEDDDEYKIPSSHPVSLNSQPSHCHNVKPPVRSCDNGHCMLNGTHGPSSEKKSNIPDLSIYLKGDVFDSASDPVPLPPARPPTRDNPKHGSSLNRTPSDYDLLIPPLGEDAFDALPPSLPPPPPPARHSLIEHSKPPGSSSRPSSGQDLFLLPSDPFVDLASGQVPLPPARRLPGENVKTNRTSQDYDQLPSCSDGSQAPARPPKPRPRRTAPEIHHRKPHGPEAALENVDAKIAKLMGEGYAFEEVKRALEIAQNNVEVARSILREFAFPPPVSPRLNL

Turning to `C[C@@H]1c2nc(N3CCC(O[C@H]4CC[C@H](CN5CCN(Cc6cc7c(c(C(F)(F)F)c6)CN(c6cccc(C8(Cc9nncn9C)CC(C#N)C8)c6)C7=O)C(C)(C)C5)CC4)CC3)ccc2C(=O)N1C1CCC(=O)NC1=O` (single isomer, unassigned) [Example 307, (1r***,3r***)-3-(3-{6-[(2,2-dimethyl-4-{[(1r**,4r**)-4-({1-[(7R*)-6-(2,6-dioxopiperidin-3-yl)-7-methyl-5-oxo-5H,6H,7H-pyrrolo[3,4-b]pyridin-2-yl]piperidin-4-yl}oxy)cyclohexyl]methyl}piperazin-1-yl)methyl]-1-oxo-4-(trifluoromethyl)-2,3-dihydro-1H-isoindol-2-yl}phenyl)-3-[(4-methyl-4H-1,2,4-triazol-3-yl)methyl]cyclobutane-1-carbonitrile], in assay [1], the DC50 is 50 to 500 nM. In addition, the “Cbl-b Degredation Method A Dmax (%)” value in assay [1] (maximum degradation observed) is “B (35 < B < 70)”. In addition, in assay [2], the DC50 is less than 5 nM and the “Cbl-b Degredation Method B Dmax (%)” value was “C (C ≤ 35)”.

As usually defined, the Dmax is the greatest extent of degradation seen. As for `C[C@@H]1c2nc(N3CCC(O[C@H]4CC[C@H](CN5CCN(Cc6cc7c(c(C(F)(F)F)c6)CN(c6cccc(C8(Cc9nncn9C)CC(C#N)C8)c6)C7=O)CC5(C)C)CC4)CC3)ccc2C(=O)N1C1CCC(=O)NC1=O` (single isomer, unassigned) [Example 311, (1r***,3r***)-3-(3-{6-[(3,3-dimethyl-4-{[(1r**,4r**)-4-({1-[(7R*)-6-(2,6-dioxopiperidin-3-yl)-7-methyl-5-oxo-5H,6H,7H-pyrrolo[3,4-b]pyridin-2-yl]piperidin-4-yl}oxy)cyclohexyl]methyl}piperazin-1-yl)methyl]-1-oxo-4-(trifluoromethyl)-2,3-dihydro-1H-isoindol-2-yl}phenyl)-3-[(4-methyl-4H-1,2,4-triazol-3-yl)methyl]cyclobutane-1-carbonitrile], the results for the DC50 in assay [1] and in assay [2] were 50 to 500 nM and less than 5 nM, respectively. Also, in assay [1] (maximum degradation observed), the Dmax was in the range of 35 to 70%. The “Cbl-b Degredation Method B Dmax (%)” value in assay [2] was “C (C ≤ 35)”.

Regarding `Cn1cnnc1CC1(c2cccc(N3Cc4c(cc(N5CC6(CCN(CC7CCN(c8ccc9c(c8F)CN(C8CCC(=O)NC8=O)C9=O)CC7)CC6)C5)cc4C(F)(F)F)C3=O)c2)COC1` (centres unmarked) [Example 1, 3-{4-fluoro-5-[4-({2-[2-(3-{3-[(4-methyl-4H-1,2,4-triazol-3-yl)methyl]oxetan-3-yl}phenyl)-3-oxo-7-(trifluoromethyl)-2,3-dihydro-1H-isoindol-5-yl]-2,7-diazaspiro[3.5]nonan-7-yl}methyl)piperidin-1-yl]-1-oxo-2,3-dihydro-1H-isoindol-2-yl}piperidine-2,6-dione], the DC50 in assay [1] and in assay [2] was less than 5 nM in each case. The Dmax in assay [1] (maximum degradation observed) and in assay [2] was 35 to 70% in each case.

On to `Cn1cnnc1CC1(c2cccc(N3Cc4c(cc(CN5CCN(C[C@H]6CC[C@H](OC7CCN(c8ccc9c(c8F)CN(C8CCC(=O)NC8=O)C9=O)CC7)CC6)CC5)cc4C(F)(F)F)C3=O)c2)COC1` (some centres unmarked) [Example 2, 3-[4-fluoro-1-oxo-5-(4-{[(1r, 4r)-4-[(4-{[2-(3-{3-[(4-methyl-4H-1,2,4-triazol-3-yl)methyl]oxetan-3-yl}phenyl)-3-oxo-7-(trifluoromethyl)-2,3-dihydro-1H-isoindol-5-yl]methyl}piperazin-1-yl)methyl]cyclohexyl]oxy}piperidin-1-yl)-2,3-dihydro-1H-isoindol-2-yl]piperidine-2,6-dione], for which the DC50 in assay [1] and in assay [2] was less than 5 nM throughout. The Dmax is greater than 70% in assay [1] (maximum degradation observed) and 35 to 70% in assay [2].

`Cn1cnnc1CC1(c2cccc(N3Cc4c(cc(N5CC6(CCN(CC7CCN(c8ccc9c(c8Cl)CN(C8CCC(=O)NC8=O)C9=O)CC7)CC6)C5)cc4C(F)(F)F)C3=O)c2)COC1` (centres unmarked) [Example 4, 3-{4-chloro-5-[4-({2-[2-(3-{3-[(4-methyl-4H-1,2,4-triazol-3-yl)methyl]oxetan-3-yl}phenyl)-3-oxo-7-(trifluoromethyl)-2,3-dihydro-1H-isoindol-5-yl]-2,7-diazaspiro[3.5]nonan-7-yl}methyl)piperidin-1-yl]-1-oxo-2,3-dihydro-1H-isoindol-2-yl}piperidine-2,6-dione]: the DC50 in assay [1] and in assay [2] was less than 5 nM each time. The Dmax in assay [1] (maximum degradation observed) and in assay [2] was 35 to 70% each time.

On to `COc1c(N2CCC(CN3CCC4(CC3)CN(c3cc5c(c(C(F)(F)F)c3)CN(c3cccc(C6(Cc7nncn7C)COC6)c3)C5=O)C4)CC2)ccc2c1CN(C1CCC(=O)NC1=O)C2=O` (centres unmarked) [Example 8, 3-{4-methoxy-5-[4-({2-[2-(3-{3-[(4-methyl-4H-1,2,4-triazol-3-yl)methyl]oxetan-3-yl}phenyl)-3-oxo-7-(trifluoromethyl)-2,3-dihydro-1H-isoindol-5-yl]-2,7-diazaspiro [3.5]nonan-7-yl}methyl)piperidin-1-yl]-1-oxo-2,3-dihydro-1H-isoindol-2-yl}piperidine-2,6-dione], for which the DC50 was 5 to 50 nM in assay [1] and less than 5 nM in assay [2]. The Dmax is greater than 70% in assay [1] (maximum degradation observed) and 35 to 70% in assay [2].

With `Cn1cnnc1CC1(c2cccc(N3Cc4c(cc(CN5CC[C@H](CN6CCN(C[C@H]7CC[C@H](OC8CCN(c9ccc%10c(c9F)CN(C9CCC(=O)NC9=O)C%10=O)CC8)CC7)CC6)C5)cc4C(F)(F)F)C3=O)c2)COC1` (stereo partly drawn) [Example 10, 3-[4-fluoro-1-oxo-5-(4-{[(1r, 4r)-4-[(4-{[(3S)-1-{[2-(3-{3-[(4-methyl-4H-1,2,4-triazol-3-yl)methyl]oxetan-3-yl}phenyl)-3-oxo-7-(trifluoromethyl)-2,3-dihydro-1H-isoindol-5-yl]methyl}pyrrolidin-3-yl]methyl}piperazin-1-yl)methyl]cyclohexyl]oxy}piperidin-1-yl)-2,3-dihydro-1H-isoindol-2-yl]piperidine-2,6-dione], the DC50 in assay [1] and in assay [2] was less than 5 nM each time. Also, the Dmax in assay [1] (maximum degradation observed) and in assay [2] was greater than 70% in each case.

As for `Cn1cnnc1CC1(c2cccc(N3Cc4c(cc(N5CCC(CN6CC7(CCN(c8ccc9c(c8)C(=O)N(C8CCC(=O)NC8=O)C9=O)CC7)C6)CC5)cc4C(F)(F)F)C3=O)c2)COC1` (centres unmarked) [Example 11, 2-(2,6-dioxo-3-piperidyl)-5-[2-[[1-[2-[3-[3-[(4-methyl-1,2,4-triazol-3-yl)methyl]oxetan-3-yl]phenyl]-3-oxo-7-(trifluoromethyl)isoindolin-5-yl]-4-piperidyl]methyl]-2,7-diazaspiro[3.5]nonan-7-yl]isoindoline-1,3-dione], the DC50 in assay [1] and in assay [2] was 5 to 50 nM throughout. Besides, the Dmax in assay [1] (maximum degradation observed) and in assay [2] was less than 35% each time.

`Cn1cnnc1CC1(c2cccc(N3Cc4c(cc(N5CCC(COCCOc6ccc7c(c6)C(=O)N(C6CCC(=O)NC6=O)C7=O)CC5)cc4C(F)(F)F)C3=O)c2)COC1` (centres unmarked) [Example 15, 2-(2,6-dioxo-3-piperidyl)-5-[2-[[1-[2-[3-[3-[(4-methyl-1,2,4-triazol-3-yl)methyl]oxetan-3-yl]phenyl]-3-oxo-7-(trifluoromethyl)isoindolin-5-yl]-4-piperidyl]methoxy]ethoxy]isoindoline-1,3-dione]: the DC50 in assay [1] is 50 to 500 nM; in assay [2], greater than 500 nM. Also, in assay [1] (maximum degradation observed), the Dmax is 35 to 70%.

With `Cn1cnnc1CC1(c2cccc(N3Cc4c(cc(N5CCC[C@H](CN6CCC(CN7CCC(CN8CCN(c9ccc%10c(c9)C(=O)N(C9CCC(=O)NC9=O)C%10=O)CC8)CC7)CC6)C5)cc4C(F)(F)F)C3=O)c2)COC1` (stereo partly drawn) [Example 16, 2-(2,6-dioxo-3-piperidyl)-5-[4-[[1-[[1-[[(3R)-1-[2-[3-[3-[(4-methyl-1,2,4-triazol-3-yl)methyl]oxetan-3-yl]phenyl]-3-oxo-7-(trifluoromethyl)isoindolin-5-yl]-3-piperidyl]methyl]-4-piperidyl]methyl]-4-piperidyl]methyl]piperazin-1-yl]isoindoline-1,3-dione], the values for the DC50 in assay [1] and in assay [2] were 50 to 500 nM and 5 to 50 nM, respectively. For the same compound, the maximal degradation (Dmax) in assay [1] (maximum degradation observed) was greater than 70%; in assay [2] it was less than 35%.

For the compound `Cn1cnnc1CC1(c2cccc(N3Cc4c(cc(NCC[C@H]5CC[C@H](OC6CCN(c7ccc8c(c7F)CN(C7CCC(=O)NC7=O)C8=O)CC6)CC5)cc4C(F)(F)F)C3=O)c2)COC1` (some centres unmarked) [Example 17, 3-[4-fluoro-5-[4-[4-[2-[[2-[3-[3-[(4-methyl-1,2,4-triazol-3-yl)methyl]oxetan-3-yl]phenyl]-3-oxo-7-(trifluoromethyl)isoindolin-5-yl]amino]ethyl]cyclohexoxy]-1-piperidyl]-1-oxo-isoindolin-2-yl]piperidine-2,6-dione], the DC50 in assay [1] and in assay [2] was greater than 500 nM each time.

Consider `Cn1cnnc1CC1(c2cccc(NC(=O)c3cc(N4CC5(CCN(CC6CCN(c7ccc8c(c7)C(=O)N(C7CCC(=O)NC7=O)C8=O)CC6)CC5)C4)nc(C4CC4)n3)c2)COC1` (centres unmarked) [Example 18, 2-cyclopropyl-6-[7-[[1-[2-(2,6-dioxo-3-piperidyl)-1,3-dioxo-isoindolin-5-yl]-4-piperidyl]methyl]-2,7-diazaspiro[3.5]nonan-2-yl]-N-[3-[3-[(4-methyl-1,2,4-triazol-3-yl)methyl]oxetan-3-yl]phenyl]pyrimidine-4-carboxamide], for which the DC50 is 50 to 500 nM in assay [1] and greater than 500 nM in assay [2]. In assay [1] (maximum degradation observed), the Dmax is less than 35%.
